Patent publication US20260027125A1, “AN ANTIBACTERIAL PARENTERAL FORMULATION AND METHODS THEREOF” (BUGWORKS RESEARCH INDIA PVT. LTD., priority 2022, published 2026)
Structures can show the parent of a compound that is named as a salt.

Legend:
Pseudomonas aeruginosa = assay: microbe, parasite or virus in culture; type: cell-based
Klebsiella pneumoniae = assay: microbe, parasite or virus in culture; type: cell-based
Enterobacter cloacae = assay: microbe, parasite or virus in culture; type: cell-based
Serratia marcescens = assay: microbe, parasite or virus in culture; type: cell-based
[1] = tested on: Stenotrophomonas maltophilia; assay: microbe, parasite or virus in culture; type: cell-based
Salmonella species = assay: microbe, parasite or virus in culture; type: cell-based
[2] = tested on: Klebsiella oxytoca, aerogenes; assay: microbe, parasite or virus in culture; type: cell-based
[3] = tested on: Burkholderia cepacia species; assay: microbe, parasite or virus in culture; type: cell-based
Providencia spp. = assay: microbe, parasite or virus in culture; type: cell-based
Achromobacter spp. = assay: microbe, parasite or virus in culture; type: cell-based
Legionella pneumophila = assay: microbe, parasite or virus in culture; type: cell-based
Shigella sp. = assay: microbe, parasite or virus in culture; type: cell-based
Hemophilus influenzae = assay: microbe, parasite or virus in culture; type: cell-based
[4] = tested on: Fusobacterium spp. (anaerobe); assay: microbe, parasite or virus in culture; type: cell-based
[5] = tested on: Bacteroides fragilis (anaerobe); assay: microbe, parasite or virus in culture; type: cell-based
[6] = tested on: Prevotella sp. (anaerobe); assay: microbe, parasite or virus in culture; type: cell-based
[7] = tested on: Mycoplasma species (atypical); assay: microbe, parasite or virus in culture; type: cell-based
Staphylococcus aureus = assay: microbe, parasite or virus in culture; type: cell-based
Enterococcus faecium = assay: microbe, parasite or virus in culture; type: cell-based
[8] = tested on: Clostridium difficile (anaerobe); assay: microbe, parasite or virus in culture; type: cell-based
Francisella tularensis = assay: microbe, parasite or virus in culture; type: cell-based
Yersinia pestis = assay: microbe, parasite or virus in culture; type: cell-based
[9] = Solubility enhancement trials; type: physicochemical
Method: All observations were recorded once the solution temperature reached to 25° C.-30° C.

[10] = Photostability study (ICH-Q1B); type: physicochemical; settings: ICH-Q1B illumination
Neisseria gonorrhoea [11] = tested on: Neisseria gonorrhoea
Helicobacter pylori [12] = tested on: Helicobacter pylori
Neisseria gonorrhoea [13] = assay: microbe, parasite or virus in culture
Helicobacter pylori [14] = assay: microbe, parasite or virus in culture
[15] = Burkholderia cepacia species clinical isolates, N 75
[16] = Legionella pneumophila clinical isolates, N 35

For Cn1c(=O)ccc2ccc(F)c(CCNC[C@H]3CN(c4cnc5c(n4)NC(=O)CO5)C(=O)O3)c21 [compound of Formula (I) formate salt, (S)-6-(5-(((2-(7-fluoro-1-methyl-2-oxo-1,2-dihydroquinolin-8-yl)ethyl)amino)methyl)-2-oxooxazolidin-3-yl)-2H-pyrazino[2,3-b][1,4]oxazin-3(4H)-one formate], the “MIC Range, high end” value (Pseudomonas aeruginosa) was 8 µg/mL, the “MIC Range, low end” value (Pseudomonas aeruginosa) was under 0.015 µg/mL and the MIC50 (Pseudomonas aeruginosa; Pseudomonas aeruginosa) was 0.5 µg/mL. The MIC90 (Pseudomonas aeruginosa; Pseudomonas aeruginosa) was 1 µg/mL, the “MIC Range, high end” value (Klebsiella pneumoniae) was 32 µg/mL and the “MIC Range, low end” value (Klebsiella pneumoniae) was 0.03 µg/mL. The MIC50 (Klebsiella pneumoniae; Klebsiella pneumoniae) was 0.5 µg/mL, the MIC90 (Klebsiella pneumoniae; Klebsiella pneumoniae) was 2 µg/mL and the “MIC Range, high end” value (Enterobacter cloacae) was 32 µg/mL. For the same compound, the “MIC Range, low end” value (Enterobacter cloacae) was at most 0.015 µg/mL, the MIC50 (Enterobacter cloacae; Enterobacter cloacae) was 0.25 µg/mL and the MIC90 (Enterobacter cloacae; Enterobacter cloacae) was 1 µg/mL. For the same compound, the “MIC Range, high end” value (Serratia marcescens) was 32 µg/mL, the “MIC Range, low end” value (Serratia marcescens) was 0.03 µg/mL and the MIC50 (Serratia marcescens; Serratia marcescens) was 0.25 µg/mL. The MIC90 (Serratia marcescens; Serratia marcescens) was 1 µg/mL, the “MIC Range, high end” value [1] was 2 µg/mL and the “MIC Range, low end” value [1] was 0.03 µg/mL. For the same compound, the MIC50 ([1]; Stenotrophomonas maltophilia) was 0.06 µg/mL, the MIC90 ([1]; Stenotrophomonas maltophilia) was 0.25 µg/mL and the “MIC Range, high end” value (Salmonella species) was 2 µg/mL. For the same compound, the “MIC Range, low end” value (Salmonella species) was 0.03 µg/mL, the MIC50 (Salmonella species; Salmonella) was 0.12 µg/mL and the MIC90 (Salmonella species; Salmonella) was 0.25 µg/mL. The “MIC Range, high end” value [2] was 4 µg/mL, the “MIC Range, low end” value [2] was 0.06 µg/mL and the MIC50 ([2]; Klebsiella oxytoca) was 0.25 µg/mL. The MIC90 ([2]; Klebsiella oxytoca) was 0.5 µg/mL, the MIC50 ([3]; Burkholderia cepacia) was 0.06 µg/mL and the MIC90 ([3]; Burkholderia cepacia) was 0.5 µg/mL. The “MIC Range, high end” value [3, 15] was 2 µg/mL, the “MIC Range, low end” value [3, 15] was 0.03 µg/mL and the “MIC Range, high end” value (Providencia spp.) was 32 µg/mL. For the same compound, the “MIC Range, low end” value (Providencia spp.) was 0.06 µg/mL, the MIC50 (Providencia spp.; Providencia) was 0.5 µg/mL and the MIC90 (Providencia spp.; Providencia) was 2 µg/mL. The “MIC Range, high end” value (Achromobacter spp.) was 0.5 µg/mL, the “MIC Range, low end” value (Achromobacter spp.) was at most 0.015 µg/mL and the MIC50 (Achromobacter spp.; Achromobacter) was 0.06 µg/mL. For the same compound, the MIC90 (Achromobacter spp.; Achromobacter) was 0.12 µg/mL, the MIC50 (Legionella pneumophila; Legionella pneumophila) was at most 0.015 µg/mL and the MIC90 (Legionella pneumophila; Legionella pneumophila) was at most 0.015 µg/mL. The “MIC Range, high end” value (Legionella pneumophila; [16]) was at most 0.015 µg/mL, the “MIC Range, low end” value (Legionella pneumophila; [16]) was at most 0.015 µg/mL and the “MIC Range, high end” value (Shigella sp.) was 0.25 µg/mL. The “MIC Range, low end” value (Shigella sp.) was at most 0.015 µg/mL, the MIC50 (Shigella sp.; Shigella) was 0.03 µg/mL and the MIC90 (Shigella sp.; Shigella) was 0.06 µg/mL. The “MIC Range, high end” value (Hemophilus influenzae) was at most 0.015 µg/mL, the “MIC Range, low end” value (Hemophilus influenzae) was at most 0.015 µg/mL and the MIC50 (Hemophilus influenzae; Haemophilus influenzae) was at most 0.015 µg/mL. The MIC90 (Hemophilus influenzae; Haemophilus influenzae) was at most 0.015 µg/mL, the “MIC Range, high end” value [4] was 0.5 µg/mL and the “MIC Range, low end” value [4] was at most 0.015 µg/mL. For the same compound, the MIC50 ([4]; Fusobacterium) was at most 0.015 µg/mL, the MIC90 ([4]; Fusobacterium) was at most 0.015 µg/mL and the “MIC Range, high end” value [5] was 8 µg/mL. For the same compound, the “MIC Range, low end” value [5] was at most 0.015 µg/mL, the MIC50 ([5]; Bacteroides fragilis) was 0.06 µg/mL and the MIC90 ([5]; Bacteroides fragilis) was 0.25 µg/mL. The “MIC Range, high end” value [6] was 1 µg/mL, the “MIC Range, low end” value [6] was at most 0.015 µg/mL and the MIC50 ([6]; Prevotella) was at most 0.015 µg/mL. For the same compound, the MIC90 ([6]; Prevotella) was at most 0.015 µg/mL, the “MIC Range, high end” value [7] was at most 0.015 µg/mL and the “MIC Range, low end” value [7] was at most 0.015 µg/mL. For the same compound, the MIC50 ([7]; Mycoplasma leachii) was at most 0.015 µg/mL, the MIC90 ([7]; Mycoplasma leachii) was at most 0.015 µg/mL and the “MIC Range, high end” value (Staphylococcus aureus) was 0.5 µg/mL. The “MIC Range, low end” value (Staphylococcus aureus) was under 0.015 µg/mL, the MIC50 (Staphylococcus aureus; Staphylococcus aureus) was 0.03 µg/mL and the MIC90 (Staphylococcus aureus; Staphylococcus aureus) was 0.03 µg/mL. The “MIC Range, high end” value (Enterococcus faecium) was 0.5 µg/mL, the “MIC Range, low end” value (Enterococcus faecium) was under 0.015 µg/mL and the MIC50 (Enterococcus faecium; Enterococcus faecium) was 0.03 µg/mL. For the same compound, the MIC90 (Enterococcus faecium; Enterococcus faecium) was 0.12 µg/mL, the “MIC Range, high end” value [8] was 0.06 µg/mL and the “MIC Range, low end” value [8] was under 0.015 µg/mL. The MIC50 ([8]; Clostridioides difficile) was under 0.015 µg/mL, the MIC90 ([8]; Clostridioides difficile) was 0.03 µg/mL and the MIC50 (Francisella tularensis) was at most 0.015 µg/mL. The MIC90 (Francisella tularensis) was at most 0.015 µg/mL, the “MIC Range, high end” value (Francisella tularensis; N 36 strains) was at most 0.015 µg/mL and the “MIC Range, low end” value (Francisella tularensis; N 36 strains) was at most 0.015 µg/mL. The MIC50 (Yersinia pestis) was at most 0.015 µg/mL, the MIC90 (Yersinia pestis) was at most 0.015 µg/mL and the “MIC Range, high end” value (Yersinia pestis; N 35 strains) was at most 0.015 µg/mL. The “MIC Range, low end” value (Yersinia pestis; N 35 strains) was at most 0.015 µg/mL, the pH ([9]; Sr. No. 2: 7.5% Citric acid solution) was 1.96 and the pH ([9]; Sr. No. 6: 7.5% Citric acid + 20% HPβ-CD) was 1.94. The pH ([9]; Sr. No. 9: 10% Ascorbic acid + 1% PVP K-12 + 20% HPβ-CD) was 2.9, the pH ([9]; Sr. No. 10: 5% Ascorbic acid + 2% PVP K-12 + 20% HPβ-CD) was 3.19 and the pH ([9]; Sr. No. 11: 7.5% Ascorbic acid + 2% PVP K-12 + 20% HPβ-CD) was 3.08. For the same compound, the pH ([9]; Sr. No. 12: 7.5% Ascorbic acid + 1% PVP K-12 + 20% HPβ-CD) was 3.07, the pH ([9]; Sr. No. 13: 5% Ascorbic acid + […] Lactic acid + 1% PVP K-12 + 20% HPβ-CD) was 2.88 and the pH ([9]; Sr. No. 14: 5% Ascorbic acid + 1% PVP K-12 + 30% HPβ-CD) was 3.25. The pH ([9]; Sr. No. 15: 7.5% Ascorbic acid + 1% PVP K-12 + 30% HPβ-CD) was 3.15, the pH ([9]; Sr. No. 17: 10% Ascorbic acid + 1% PVP K-12 + 30% HPβ-CD) was 3.03 and the pH ([9]; Sr. No. 18: 7% Ascorbic acid + […] Acetic acid + 1% PVP K-12 + 30% HPβ-CD) was 3.06. For the same compound, the pH ([9]; Sr. No. 19: 7% Ascorbic acid + 0.9% Glycine + 30% HPβ-CD) was 3.25, the pH ([9]; Sr. No. 20: 7% Ascorbic acid + […] Acetic acid + 0.9% Glycine + 30% HPβ-CD) was 3.16 and the pH ([9]; Sr. No. 21: 7% Ascorbic acid + […] lactic acid + 1% PVP K-12 + 30% HPβ-CD) was 2.91. The pH ([9]; Sr. No. 22: 6% Ascorbic acid + […] Acetic acid + […] lactic acid + 1% PVP K-12 + 30% HPβ-CD) was 2.84, the pH ([9]; Sr. No. 23: Acetate Buffer (200 mM, pH 3.0) + 6% Ascorbic acid + […] lactic acid + 1% PVP K-12 + 30% HPβ-CD) was 2.78 and the pH ([9]; Sr. No. 24: 5% Ascorbic acid + […] Acetic acid + […] lactic acid + 1% PVP K-12 + 30% HPβ-CD, pH adjusted by L-Arginine Solution) was 3.73. The sensitivity to light [10] was “sensitive to light”, the “MIC Range, high end” value (Neisseria gonorrhoea [11]) was at most 0.015 µg/mL and the “MIC Range, low end” value (Neisseria gonorrhoea [11]) was at most 0.015 µg/mL. For the same compound, the “MIC Range, high end” value (Helicobacter pylori [12]) was 0.5 µg/mL, the “MIC Range, low end” value (Helicobacter pylori [12]) was at most 0.015 µg/mL and the MIC50 (Neisseria gonorrhoea [13]) was at most 0.015 µg/mL. It also gave an MIC90 (Neisseria gonorrhoea [13]) of at most 0.015 µg/mL, an MIC50 (Helicobacter pylori [14]) of at most 0.015 µg/mL and an MIC90 (Helicobacter pylori [14]) of at most 0.015 µg/mL.
